{"source": "paper PMC11944910", "about": "“N-(9-Acridinyl) Amino Acid Derivatives: Synthesis and In Vitro Evaluation of Anti-Toxoplasma gondii Activity” (Pharmaceutics, 2025)", "key": {"[1]": {"experiment": "MTT cytotoxicity assay on non-infected Vero cells", "format": "cell-based", "settings": "Chlorocebus sabaeus (African green monkey), non-infected Vero cells (ATCC CCL-81), 72 h incubation", "from_the_text": "The Vero cell line (ATCC® CCL-81), derived from the kidney tissue of the Green African monkey (Chlorocebus sabaeus), was utilized as a model of non-infected cells in the cytotoxicity assay. The cells were thawed from stocks maintained in liquid nitrogen at the National Reference Laboratory (NRL) for Toxoplasmosis and cultured in D10 medium—Advanced Dulbecco’s Modified Eagle Medium (DMEM) (Thermo Fisher Scientific, Waltham, MA, USA), supplemented with 10% bovine calf serum (BCS) (Sigma-Aldrich, St. Louis, MO, USA), 1% HEPES buffer (Thermo Fisher Scientific, Waltham, MA, USA), and 1% penicillin-streptomycin (Pen/Strep) solution (Thermo Fisher Scientific, Waltham, MA, USA) in T25 and T75 flasks. Depending on confluency, cells were subcultured 1–2 times per week.\nThe MTT colorimetric assay, a widely used method for assessing the cytotoxicity of newly synthesized compounds, was used to evaluate the toxic effect of AADs on non-infected cells. This assay is based on the ability of metabolically active, viable cells to reduce the yellow 3-(4,5-dimethylthiazol-2-yl)-2,5-diphenyltetrazolium bromide (MTT) reagent to purple formazan. The number of viable cells in the well is directly proportional to the intensity of the resulting color. The MTT assay was performed according to the manufacturer’s instructions using the In Vitro Toxicology Assay Kit (MTT-based, Sigma-Aldrich, St. Louis, MO, USA), with a protocol specifically modified to accommodate the cell line and derivatives analyzed in this study.\nIn brief, Vero cells were seeded in a 96-well plate, at a density of 25,000 cells per well and incubated for 24 h at 37 °C in a 5% CO2 atmosphere. After the incubation period, the supernatant was removed from each well and replaced with serial dilutions of the analyzed derivatives, as well as with the combination of PYR+SDZ (Sigma-Aldrich, St. Louis, MO, USA) as a positive control. All compounds were investigated in five different concentrations, ranging from 100 μM to 6.25 μM, using a two-fold serial dilution method. The positive control was tested in the range of 0.4 μM + 100 μM to 0.025 μM + 6.25 μM (ratio of PYR+SDZ adjusted according to the literature). In negative control wells, containing only non-infected Vero cells, the discarded supernatant was replaced by a new amount of D10 medium. Blank wells, used to account for any background signal from the colored culture medium, contained only D10 medium. All samples, including controls and blanks, were analyzed in triplicates.\nSamples containing Vero cells with added AADs or the positive control were incubated for 72 h. After incubation, the supernatant was discarded, and a new amount of D10 medium (100 μL) was added to each well. The MTT reagent (10 μL, […]) was subsequently added to each well, and the plates were incubated for an additional four hours. After the incubation period, the supernatant was discarded, and the resulting formazan crystals were dissolved using the solubilizing solution from the In Vitro Toxicology Assay Kit. Absorbance was measured at 540 nm using an ELISA plate reader (Multiskan EX, Thermofisher Scientific, Waltham, MA, USA). Data analysis was conducted, and CC50 values (cytotoxic concentration used to lyse/inhibit average of 50% of cells) were obtained using nonlinear regression in GraphPad Prism 10.4.1 (GraphPad Software Inc., La Jolla, CA, USA)."}, "[2]": {"experiment": "Solubility by visual inspection", "format": "physicochemical", "settings": "for Solubility on dilution of DMSO solution in pH 7.4 phosphate buffer: diluted up to 10,000 times in pH 7.4 phosphate buffer; for solubility: organic solvent or mixture, DMSO, tested up to 30 mM, read-out: Solubility in DMSO (clear and transparent solutions)", "protocol": "Solubility and stability testing was conducted for three of the derivatives, evaluated as potential in vivo testing candidates, namely AAD1, AAD2 and AAD8. Solubility was evaluated using a visual inspection method, checking the clarity and opalescence of different concentrations (up to 30 mM) of dimethyl sulfoxide (DMSO) solutions of the mentioned AADs, as well as of their further dilutions with the pH 7.4 phosphate buffer (100-, 1000- and 10,000-times dilutions)."}, "[3]": {"experiment": "Solution stability by HPLC", "format": "physicochemical", "settings": "pH 2 (0.01 M HCl) 2 h; pH 5.5 and pH 7.4 phosphate buffer 4 h", "protocol": "Solubility and stability testing was conducted for three of the derivatives, evaluated as potential in vivo testing candidates, namely AAD1, AAD2 and AAD8. The stability of the synthesized AADs was evaluated in mediums with three different pH values: 2 (0.01 M HCl), 5.5 (phosphate buffer) and 7.4 (phosphate buffer). Stability was tested by employing a HPLC method, using an Agilent 1200 chromatograph (Agilent Technologies, Palo Alto, CA, USA) and Zorbax Extend C18 column (Agilent Technologies, Palo Alto, CA, USA). The mobile phase consisted of acetonitrile and water (pH was adjusted to 3.2 using phosphoric acid) at a ratio of 30:70 (v/v) for all three AADs. Column temperature was adjusted to 25 °C, while the flow rate was […]. UV detection was performed at 220, 230, 254, 265 and 280 nm. In short, samples (solutions of the investigated AADs in the appropriate mediums) were injected twice into the HPLC column: the first time right after the preparation of the solutions, and the second time after the stability testing interval—two hours for the pH 2 solution and four hours for the pH 5.5 and 7.4 solutions. At the end of the incubation intervals, the decrease in peak areas and occurrence of additional peaks on chromatograms were analyzed in comparison with the chromatograms obtained right after the preparation of the solutions."}, "[4]": {"system": "T. gondii RH strain tachyzoites", "experiment": "Anti-T. gondii activity screening (viable tachyzoite count, Trypan blue)", "format": "cell-based, Toxoplasma gondii", "settings": "25 µM, 24 h, compared to untreated control", "protocol": "T. gondii RH strain tachyzoites were obtained from the NRL for Toxoplasmosis, Institute for Medical Research, Belgrade, Serbia, where the RH strain is regularly maintained via passages using female Swiss-Webster mice twice a week (Ethical license no. 323-07-02445/2014-05/1).\nThe anti-T. gondii activity of the AADs was evaluated according to previously described methodology, slightly modified by using the DMEM culture medium supplemented with 10% bovine calf serum (BCS) without antibiotics (referred to as modified D10 medium). RH strain T. gondii tachyzoites were harvested from the intraperitoneal exudate of infected mice during routine passage of the strain at the NRL for toxoplasmosis. The sample (intraperitoneal lavage fluid of RH strain-infected mice) was then washed three times using Dulbecco Phosphate Buffered Saline (DPBS) (Thermofisher Scientific, Waltham, MA, USA) and centrifuged at 2.500 rpm for five minutes to obtain a pellet consisting of RH strain tachyzoites only. The pellet was then resuspended, and the parasite count was determined by Trypan blue vital staining, using a Bürker-Türk counting chamber. Tachyzoites were resuspended in an appropriate volume of DMEM culture medium to achieve the required tachyzoite concentration. A suspension of tachyzoites (2 × 10^6 tachyzoites/well, in 100 μL volume) was then seeded into a 96-well microplate and exposed to a 25 µM concentration of 10 AADs, as well as a combination of PYR+SDZ, for 24 h. All samples, including the untreated control consisting of RH strain tachyzoites in a modified D10 culture medium, were tested in triplicates.\nAfter 24 h, 20 µL of sample was collected from each well, mixed with an equal volume of Trypan blue stain, and the number of viable tachyzoites was determined using a Bürker-Türk counting chamber. The reduction in the number of viable tachyzoites compared to untreated control was calculated using the following formula:(1) Reduction %=100%−(median value of number of viable tachyzoites in test wells/median value of number of viable tachyzoites in control wells×100%)"}}, "note": "Several values for one entry are separate records, joined by “and”; a condition that tells them apart may be missing. Equal entries are not always repeated."}
{"smiles": "CCOC(=O)CCCCCNc1c2ccccc2nc2ccccc12", "note": "[AAD1]", "values": [{"measurement": "CC50 at 72 h", "setting": "[1]", "value": 41.7, "unit": "µM"}, {"measurement": "Solubility on dilution of DMSO solution in pH 7.4 phosphate buffer", "setting": "[2]", "value": "maintaining solubility"}, {"measurement": "solubility", "setting": "[2]", "value": "≥ 30", "unit": "mM"}, {"measurement": "Solution stability (HPLC peak area, additional peaks)", "setting": "[3]", "value": "stable"}, {"measurement": "Viability Reduction of T. gondii Tachyzoites", "setting": "[4]", "value": 24.7, "unit": "%"}]}
{"smiles": "Cn1cc(CC(Nc2c3ccccc3nc3ccccc23)C(=O)O)c2ccccc21", "note": "(stereo not shown) [AAD2]", "values": [{"measurement": "CC50 at 72 h", "setting": "[1]", "value": 60.2, "unit": "µM"}, {"measurement": "Solubility on dilution of DMSO solution in pH 7.4 phosphate buffer", "setting": "[2]", "value": "maintaining solubility"}, {"measurement": "solubility", "setting": "[2]", "value": "≥ 30", "unit": "mM"}, {"measurement": "Solution stability (HPLC peak area, additional peaks)", "setting": "[3]", "value": "stable"}]}
{"smiles": "COC(=O)CCCCCCCNc1c2ccccc2nc2ccccc12", "note": "[AAD3]", "values": [{"measurement": "CC50 at 72 h", "setting": "[1]", "value": 88.4, "unit": "µM"}, {"measurement": "Viability Reduction of T. gondii Tachyzoites", "setting": "[4]", "value": 15.2, "unit": "%"}]}
{"smiles": "COC(=O)C(Cc1c[nH]cn1)Nc1c2ccccc2nc2ccccc12", "note": "(stereo not shown) [AAD4]", "values": [{"measurement": "CC50 at 72 h", "setting": "[1]", "value": 134, "unit": "µM"}, {"measurement": "Viability Reduction of T. gondii Tachyzoites", "setting": "[4]", "value": 4.5, "unit": "%"}]}
{"smiles": "O=C(O)CCCCCCCNc1c2ccccc2nc2ccccc12", "note": "[AAD6, 8-(acridin-9-ylamino) octanoic acid]", "values": [{"measurement": "CC50 at 72 h", "setting": "[1]", "value": 154, "unit": "µM"}, {"measurement": "Viability Reduction of T. gondii Tachyzoites", "setting": "[4]", "value": 22.0, "unit": "%"}]}
{"smiles": "O=C(O)CCCCCNc1c2ccccc2nc2ccccc12", "note": "[AAD7, 6-(acridin-9-ylamino) hexanoic acid]", "values": [{"measurement": "CC50 at 72 h", "setting": "[1]", "value": 93, "unit": "µM"}, {"measurement": "Viability Reduction of T. gondii Tachyzoites", "setting": "[4]", "value": "20.9% and 20.5%"}]}
{"smiles": "O=C(O)CCCNc1c2ccccc2nc2ccccc12", "note": "[AAD8, 4-(acridin-9-ylamino) butanoic acid]", "values": [{"measurement": "CC50 at 72 h", "setting": "[1]", "value": 102, "unit": "µM"}, {"measurement": "Solubility on dilution of DMSO solution in pH 7.4 phosphate buffer", "setting": "[2]", "value": "maintaining solubility"}, {"measurement": "solubility", "setting": "[2]", "value": "≥ 30", "unit": "mM"}, {"measurement": "Solution stability (HPLC peak area, additional peaks)", "setting": "[3]", "value": "stable"}, {"measurement": "Viability Reduction of T. gondii Tachyzoites", "setting": "[4]", "value": 33.3, "unit": "%"}]}
{"smiles": "O=C(O)[C@H](Cc1ccccc1)Nc1c2ccccc2nc2ccccc12", "note": "[AAD9, (S) 2-(acridin-9-ylamino)-3-phenylpropanoic acid]", "values": [{"measurement": "CC50 at 72 h", "setting": "[1]", "value": 50.2, "unit": "µM"}]}
{"smiles": "O=C(O)CCNc1c2ccccc2nc2ccccc12", "note": "[AAD10, 3-(acridin-9-ylamino) propanoic acid]", "values": [{"measurement": "CC50 at 72 h", "setting": "[1]", "value": 177, "unit": "µM"}, {"measurement": "Viability Reduction of T. gondii Tachyzoites", "setting": "[4]", "value": 21.9, "unit": "%"}]}
